According to US10201624B2, “Triazine based radiopharmaceuticals and radioimaging agents” (Molecular Insight Pharmaceuticals, Inc., priority 2013, dated 2019):
Each block holds one molecule with its values, some of them ahead of it.

Key:
LNCaP cell xenografts = experiment: tissue distribution of ^177Lu-labeled compounds in mice bearing LNCaP xenografts; assay type: in vivo; conditions: for concentration in kidneys compared with tumor: 4 hours post administration; for concentration in LNCap tumor: 24 hours and 96 hours post administration compared with 4 hours; for clearance from the kidneys: over a period of 96 hours
Description: All animal studies were approved by the Institute for Animal Care and Use Committee in accordance with the guidelines set forth by the U.S. Public Health Service Policy on Humane Care and Use of Laboratory Animals. Mice were housed under standard conditions in approved facilities with 12 hour light/dark cycles and given food and water ad libitum. Male athymic NCr-nu/nu mice were purchased from Taconic. For inoculation in mice, LNCaP cells were resuspended at 10^7 cells/ml in a 1:1 mixture of cell culture medium:Matrigel (BD Biosciences). Each mouse was injected in the right flank with 0.25 ml of the cell suspension. Mice were used for tissue distribution studies when the tumors reached approximately 100-400 mm^3.
A quantitative analysis of the tissue distribution of ^177Lu-labeled compounds was performed in separate groups of male NCr-nu/nu mice bearing LNCaP cell xenografts. The compounds were administered via the tail vein as a bolus injection (approximately 10 μCi/mouse) in a constant volume of 0.05 mL. The animals (n=5/time point) were euthanized by asphyxiation with carbon dioxide at the indicated time points after injection. Tissues, for example, blood, heart, lungs, liver, spleen, kidneys, stomach, large and small intestines (with contents), testes, skeletal muscle, bone, brain, adipose, and tumor were dissected, excised, weighed wet, and counted in an automated γ-counter. Tissue time-radioactivity levels were expressed as percent injected dose per gram of tissue (% ID/g).

LNCaP xenografts = experiment: in vivo efficacy: inhibition of LNCaP tumor growth; set-up: species or system mice; conditions: 450 μCi per mouse, intravenous
Description: FIG. 5 illustrates the in vivo efficacy of an exemplary lutetium complex of the invention to inhibit the growth of LNCaP tumors in mice. Arrest of tumor growth was determined by administering 450 μCi of the lutetium complex of (2S)-2-(3-((1S)-1-caroxy-5-(11-(4-(4-(dimethylamino)-6-((4-((1,4,7,10-tetrakis(carboxymethyl)-1,4,7,10-tetraazacyclododecan-2-yl)methyl)phenyl)amino)-1,3,5-triazin-2-yl)piperazin-1-yl)undecanamido)pentyl)ureido)pentanedioic acid to each mouse in the study group. Mice in the control group were administered saline. Tumor volumes in the test and control group of mice were measured twice weekly.
All animal studies were approved by the Institute for Animal Care and Use Committee in accordance with the guidelines set forth by the U.S. Public Health Service Policy on Humane Care and Use of Laboratory Animals. Mice were housed under standard conditions in approved facilities with 12 hour light/dark cycles and given food and water ad libitum. Male athymic NCr-nu/nu mice were purchased from Taconic. […]
Mice bearing LNCaP xenografts having an average volume of ˜100-500 mm^3, were randomly assigned to a control group or a treatment group (n=10 mice per group). […] Tumor dimensions were measured twice weekly with digital calipers and tumor volumes were calculated using the formula ([…]Π×width^2×length)/6. […]

PSMA = target: T1, PSMA (Homo sapiens, UniProt Q04609); experiment: ^68Ga-PSMA PET/CT imaging of a subject having prostate cancer; assay type: in vivo
T1 construct: from tissue; host or cells: in vivo: prostate tissue, lymph node and bone lesions of a subject having prostate cancer
T1 sequence (Q04609 whole entry): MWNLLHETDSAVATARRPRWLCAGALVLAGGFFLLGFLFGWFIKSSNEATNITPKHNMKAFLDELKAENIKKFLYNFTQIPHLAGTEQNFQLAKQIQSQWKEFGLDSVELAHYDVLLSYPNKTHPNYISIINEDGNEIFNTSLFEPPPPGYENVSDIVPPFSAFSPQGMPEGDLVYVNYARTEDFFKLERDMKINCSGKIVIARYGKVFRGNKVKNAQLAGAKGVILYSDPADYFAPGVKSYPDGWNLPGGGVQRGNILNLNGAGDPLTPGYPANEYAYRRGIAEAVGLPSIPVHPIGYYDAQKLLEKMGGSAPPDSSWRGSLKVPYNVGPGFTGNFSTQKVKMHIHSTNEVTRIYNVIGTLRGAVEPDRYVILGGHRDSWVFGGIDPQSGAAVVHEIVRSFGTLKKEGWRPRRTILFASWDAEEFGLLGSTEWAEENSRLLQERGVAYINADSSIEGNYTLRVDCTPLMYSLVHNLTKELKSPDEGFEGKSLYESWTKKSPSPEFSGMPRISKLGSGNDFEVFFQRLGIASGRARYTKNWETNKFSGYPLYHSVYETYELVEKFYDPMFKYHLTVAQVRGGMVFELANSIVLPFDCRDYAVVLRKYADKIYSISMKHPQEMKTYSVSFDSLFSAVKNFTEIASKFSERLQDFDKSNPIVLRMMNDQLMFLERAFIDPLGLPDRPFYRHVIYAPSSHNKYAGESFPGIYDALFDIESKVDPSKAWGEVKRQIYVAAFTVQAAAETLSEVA
Description: According to another embodiment of the invention, radiometal complexes of Formula I and Formula II compounds were used for imaging prostate cancer and accompanying metastasis in a subject. Briefly, ^68Ga was complexed to (2S)-2-(3-((1S)-1-carboxy-5-(11-(4-(4-(dimethylamino)-6-((4-((1,4,7,10-tetrakis(carboxymethyl)-1,4,7,10-tetraazacyclododecan-2-yl)methyl)phenyl)amino)-1,3,5-triazin-2-yl)piperazin-1-yl)undecanamido)pentyl)ureido)pentanedioic acid and the resultant complex was administered to a subject having prostate cancer. The subject was then imaged at 1 hour and 3 hours post administration of the inventive ^68Ga complex using, for example, a ^68Ga-PSMA PET/CT scanner. […] Overall, this imaging study supports the use of radiometal complexes of the inventive compounds as suitable agents for radioimaging of cancers, such as prostate cancer.

[1] = ^177Lu complex, LNCap xenograft mice, tail vein bolus
[2] = extended study, 3 weeks post administration
[3] = extended study, between 24 hours to 96 hours

concentration in kidneys compared with tumor (LNCaP cell xenografts): greater in kidneys than in tumor | concentration in LNCap tumor (LNCaP cell xenografts): remained unchanged | clearance from the kidneys (LNCaP cell xenografts): rapidly cleared from the kidneys
Molecule: O=C(O)CCOCCOCCNc1nc(Nc2ccc(CC3CN(CC(=O)O)CCN(CC(=O)O)CCN(CC(=O)O)CCN3CC(=O)O)cc2)nc(N2CCN(CCCCCCCCCCC(=O)NCCCC[C@H](NC(=O)N[C@@H](CCC(=O)O)C(=O)O)C(=O)O)CC2)n1 (stereo partly drawn) [complex (A), ^177Lu-complex of (2S)-2-(3-(1-carboxy-5-(11-(4-(4-((2-(2-(2-carboxyethoxy)ethoxy)ethyl)amino)-6-((4-((1,4,7,10-tetrakis(carboxymethyl)-1,4,7,10-tetraazacyclododecan-2-yl)methyl)phenyl)amino)-1,3,5-triazin-2-yl)piperazin-1-yl)undecanamido)pentyl)ureido)pentanedioic acid, metal not drawn]
concentration in kidneys and tumor compared with other tissues (LNCaP cell xenografts; [1]): concentrate in kidneys and tumor to a greater extent than other tissues

concentration in kidneys compared with tumor (LNCaP cell xenografts): greater in kidneys than in tumor | concentration in LNCap tumor (LNCaP cell xenografts): remained unchanged | clearance from the kidneys (LNCaP cell xenografts): rapidly cleared from the kidneys
Molecule: O=C(O)CC[C@H](NC(=O)N[C@@H](CCCCNC(=O)CCCCCCCCCCN1CCN(c2nc(Nc3ccc(CC4CN(CC(=O)O)CCN(CC(=O)O)CCN(CC(=O)O)CCN4CC(=O)O)cc3)nc(N3CCCCC3)n2)CC1)C(=O)O)C(=O)O (stereo partly drawn) [complex (B), ^177Lu-complex of (2S)-2-(3-((1S)-1-carboxy-5-(11-(4-(4-(piperidin-1-yl)-6-((4-((1,4,7,10-tetrakis(carboxymethyl)-1,4,7,10-tetraazacyclododecan-2-yl)methyl)phenyl)amino)-1,3,5-triazin-2-yl)piperazin-1-yl)undecanamido)pentyl)ureido)pentanedioic acid, metal not drawn]
concentration in kidneys and tumor compared with other tissues (LNCaP cell xenografts; [1]): concentrate in kidneys and tumor to a greater extent than other tissues

intracellular concentration in LNCaP tumor cells (LNCaP cell xenografts; extended study, 1 week post administration): no appreciable change | intrarenal concentration (LNCaP cell xenografts; extended study, 1 week post administration compared with within eight hours): significantly lower | intratumoral concentration (LNCaP cell xenografts; [2]): decrease | concentration in kidney (LNCaP cell xenografts; [3]): decreases | concentration in tumor (LNCaP cell xenografts; [3]): no observable change | concentration in kidneys and tumor as a function of time (LNCaP cell xenografts; extended study, first eight hours post administration): gradual increase
Molecule: CN(C)c1nc(Nc2ccc(CC3CN(CC(=O)O)CCN(CC(=O)O)CCN(CC(=O)O)CCN3CC(=O)O)cc2)nc(N2CCN(CCCCCCCCCCC(=O)NCCCC[C@H](NC(=O)N[C@@H](CCC(=O)O)C(=O)O)C(=O)O)CC2)n1 (stereo partly drawn) [complex (D), ^177Lu-complex of (2S)-2-(3-((1S)-1-carboxy-5-(11-(4-(4-(dimethylamino)-6-((4-((1,4,7,10-tetrakis(carboxymethyl)-1,4,7,10-tetraazacyclododecan-2-yl)methyl)phenyl)amino)-1,3,5-triazin-2-yl)piperazin-1-yl)undecanamido)pentyl)ureido)pentanedioic acid, metal not drawn]
concentration in kidneys and tumor compared with other tissues (LNCaP cell xenografts; extended biodistribution study, shorter time intervals post administration): concentrates to a greater extent in kidneys and tumor than other tissues | decrease in tumor concentration compared with decrease in intrarenal concentration (LNCaP cell xenografts; [2]): less compared to the decrease in the intrarenal concentration | LNCaP tumor volumes compared with volume at the start of the study (LNCaP xenografts): decrease to values lower than the tumor volume at the start of the study | tumor volumes compared with saline control group (LNCaP xenografts; measured twice weekly): significantly lower

Molecule: ^68Ga complex of (2S)-2-(3-((1S)-1-carboxy-5-(11-(4-(4-(dimethylamino)-6-((4-((1,4,7,10-tetrakis(carboxymethyl)-1,4,7,10-tetraazacyclododecan-2-yl)methyl)phenyl)amino)-1,3,5-triazin-2-yl)piperazin-1-yl)undecanamido)pentyl)ureido)pentanedioic acid [Example 17]
tissue accumulation in radiographic image (PSMA; FIG. 6): accumulates in the lacrimal and salivary glands, kidney, liver, and urinary bladder | PSMA specific lesions in radiographic image (PSMA; imaged at 1 hour and 3 hours post administration): detected in the lymph nodes and bone, in addition to the prostate tissue itself | imaging agent visible in bladder (PSMA; visible at hour 1): cleared by the 3-hour scan

Molecule: ^177Lu-complex of (21S,25S)-8,15,23-trioxo-1-(4-((1,4,7,10-tetrakis(carboxymethyl)-1,4,7,10-tetraazacyclododecan-2-yl)methyl)phenylamino)-1 thioxo-2,7,16,22,24-pentaazaheptacosane-21,25,27-tricarboxylic acid [complex (C), reference compound]
concentration in kidneys compared with tumor (LNCaP cell xenografts): greater in kidneys than in tumor | concentration in LNCap tumor (LNCaP cell xenografts): decreases | concentration in kidneys and tumor compared with other tissues (LNCaP cell xenografts; [1]): concentrate in kidneys and tumor to a greater extent than other tissues
